Structures can show the parent of a compound that is named as a salt. Where two headings read alike, the source gives them in different places.
What was measured:
Format in all cases: cell-based, human
HTT mRNA = test: RT-qPCR splicing assay, HTT canonical (CJ) and alternative (AJ) junction mRNA; settings: Homo sapiens; for AC50: read-out: HTT AJ (AC50, increase in AJ mRNA)
Protocol: (§1) Compounds described herein were used to modulate RNA transcript abundance in cells. The expression of a target mRNA was measured by detecting the formation of an exon-exon junction in the canonical transcript (CJ). A compound mediated exon-inclusion event was detected by observing an increase in formation of a new junction with an alternative exon (AJ). Real-time qPCR assays were used to detect these splicing switches and interrogate the potency of various compounds towards different target genes. A high-throughput real time quantitative PCR (RT-qPCR) assay was developed to measure these two isoforms of the mRNA (CJ and AJ) for exemplary genes, such as HTT, SMN2, and MYB, together with a control housekeeping gene, GAPDH or GUSB or PPIA, used for normalization. Briefly, the A673 or K562 cell line was treated with various compounds described herein (e.g., compounds of Formula (I), (II), (III), (IV)). After treatment, the levels of the HTT, MYB, or SMN2 mRNA targets were determined from each sample of cell lysate by cDNA synthesis followed by qPCR.
(§2) The A673 cell line was cultured in DMEM with 10% FBS. Cells were diluted with full growth media and plated in a 96-well plate (15,000 cells in 100ul media per well). The plate was incubated at 37° C. with 5% CO2 for 24 hours to allow cells to adhere. An 11-point 3-fold serial dilution of the compounds was made in DMSO then diluted in media in an intermediate plate. Compounds were transferred from the intermediate plate to the cell plate with the top dose at a final concentration of 10 uM in the well. Final DMSO concentration was kept at or below 0.25%. The cell plate was returned to the incubator at 37° C. with 5% CO2 for an additional 24 hours.
(§3) The K562 cell line was cultured in IMDM with 10% FBS. For K562, cells were diluted with full growth media and plated in either a 96-well plate (50,000 cells in 50 uL media per well) or a 384-well plate (8,000-40,000 cells in 45 uL media per well). An 11-point 3-fold serial dilution of the compounds were made in DMSO then diluted in media in an intermediate plate.
(§4) Compound was transferred from the intermediate plate to the cell plate with the top dose at a final concentration of 10 uM in the well. Final DMSO concentration was kept at or below 0.25%.
(§5) Final volume was 100 uL for 96-well plate and 50 uL for 384-well plate. The cell plate was then placed in an incubator at 37° C. with 5% CO2 for 24 hours.
(§6) The cells were then gently washed with 50 uL-100 uL cold PBS before proceeding to addition of lysis buffer. 30 uL-50 μL of room temperature lysis buffer with DNAse I (and optionally RNAsin) was added to each well. Cells were shaken/mixed thoroughly at room temperature for 5-10 minutes for lysis to take place and then 3 uL-5 μL of room temperature stop solution was added and wells were shaken/mixed again. After 2-5 minutes, the cell lysate plate was transferred to ice for RT-qPCR reaction setup. The lysates could also be frozen at −80° C. for later use.
(§7) In some cases, a direct lysis buffer was used. An appropriate volume of 3× lysis buffer (10 mM Tris, 150 mM NaCl, 1.5%-2.5% Igepal and 0.1-1 U/uL RNAsin, pH 7.4) was directly added to either K562 or A673 cells in media and mixed by pipetting 3 times. The plates were then incubated at room temperature with shaking/rocking for 20-50 minutes to allow for lysis to take place. After this time, the cell lysate plate was transferred to ice to set up for the RT-qPCR reactions. The lysates could also be frozen at −80° C. for later use.
(§8) To set up 10 uL RT-qPCR reactions, cell lysates were transferred to 384-well qPCR plates containing the master mix according to the table below. The plates were sealed, gently vortexed, and spun down before the run. The volumes were adjusted accordingly in some instances where the reaction was carried in 20 μL. The table below summarizes the components of the RT-qPCR reactions: […]

SMN2 mRNA = test: RT-qPCR splicing assay panel, SMN2 canonical junction (CJ) mRNA; settings: Homo sapiens, canonical junction (CJ) mRNA, RT-qPCR panel, Table 4A; read-out: SMN2, decrease in CJ mRNA levels, IC50
Protocol: as §1, §2, §3, §4, §5, §6, §7, §8

MYB mRNA = test: RT-qPCR splicing assay, MYB canonical (CJ) and alternative (AJ) junction mRNA; settings: Homo sapiens; for AC50: read-out: MYB AJ (AC50, increase in AJ mRNA)
Protocol: as §1, §2, §3, §4, §5, §6, §7, §8

Target C mRNA = test: RT-qPCR splicing assay panel, Target C canonical junction (CJ) mRNA; settings: Homo sapiens, canonical junction (CJ) mRNA, RT-qPCR panel, Table 4A; read-out: Target C, decrease in CJ mRNA levels, IC50
Protocol: as §1, §2, §3, §4, §5, §6, §7, §8

[1] = 24 h, Table 3A, A673 or K562 cells, 24 h treatment
[2] = 24 h, Table 3A, A673 or K562 cells, 24 h treatment, read-out: HTT CJ (IC50, decrease in CJ mRNA)
[3] = canonical junction (CJ) mRNA, RT-qPCR panel, Table 4A, read-out: HTT, decrease in CJ mRNA levels, IC50
[4] = 24 h, Table 3A, A673 or K562 cells, 24 h treatment, read-out: MYB CJ (IC50, decrease in CJ mRNA)
[5] = canonical junction (CJ) mRNA, RT-qPCR panel, Table 4A, read-out: MYB, decrease in CJ mRNA levels, IC50

SMILES | AC50 (HTT mRNA; [1]) [nM] | IC50 (HTT mRNA; [2]) [nM] | IC50 (HTT mRNA; [3]) [nM] | IC50 (SMN2 mRNA) [nM] | AC50 (MYB mRNA; [1]) [nM] | IC50 (MYB mRNA; [4]) [nM] | IC50 (MYB mRNA; [5]) [nM] | IC50 (Target C mRNA) [nM]
CC(C)(C)NC1CCN(c2ccc(-c3ccc(-n4cccn4)c(O)c3)nn2)C1 (stereo not shown) [Compound 109, 5-{6-[3-(tert-butylamino)pyrrolidin-1-yl]pyridazin-3-yl}-2-(pyrazol-1-yl)phenol trifluoroacetate] | > 10000 | 1000 to 10000 | 1000 to 10000 | 1000 to 10000 | > 10000 | > 10000 | > 10000 | > 10000
Oc1cc(-c2cn[nH]c2)ccc1-c1ccc(N2CCC(NC3(C(F)(F)F)CC3)C2)nn1 (stereo not shown) [Compound 110, 5-(1H-pyrazol-4-yl)-2-[6-(3-{[1-(trifluoromethyl)cyclopropyl]amino}pyrrolidin-1-yl)pyridazin-3-yl]phenol] | > 10000 | > 10000 | > 10000 | > 10000 | > 10000 | > 10000 | > 10000 | > 10000
CC1(NC2CCN(c3ccc(-c4cc(F)c(-c5cn[nH]c5)cc4O)nn3)C2)CC1 (stereo not shown) [Compound 111, 4-fluoro-2-(6-{3-[(1-methylcyclopropyl)amino]pyrrolidin-1-yl}pyridazin-3-yl)-5-(1H-pyrazol-4-yl)phenol] | < 100 | < 100 | < 100 | < 100 | < 100 | < 100 | < 100 | < 100
Oc1cc(-c2cn[nH]c2)ccc1-c1ccc(N2CCC(NC3(CF)CC3)C2)nn1 (stereo not shown) [Compound 112, 2-[6-(3-{[1-(fluoromethyl)cyclopropyl]amino}pyrrolidin-1-yl)pyridazin-3-yl]-5-(1H-pyrazol-4-yl)phenol] | < 100 | < 100 | < 100 | < 100 | < 100 | 100 to 1000 | 100 to 1000 | 100 to 1000
Oc1cc(-c2cn[nH]c2)c(F)cc1-c1ccc(N2CC[C@H](NC3CCC3)C2)nn1 [Compound 113, 2-{6-[(3S)-3-(cyclobutylamino)pyrrolidin-1-yl]pyridazin-3-yl}-4-fluoro-5-(1H-pyrazol-4-yl)phenol] | < 100 | < 100 | < 100 | < 100 | < 100 | < 100 | < 100 | < 100
Oc1cc(-c2cn[nH]c2)ccc1-c1ccc(N2CC[C@@H](NC3CCC3)C2)nn1 [Compound 114, 2-{6-[(3R)-3-(cyclobutylamino)pyrrolidin-1-yl]pyridazin-3-yl}-5-(1H-pyrazol-4-yl)phenol] | < 100 | < 100 | < 100 | < 100 | 100 to 1000 | 100 to 1000 | 100 to 1000 | 100 to 1000
Oc1cc(-c2cn[nH]c2)c(F)cc1-c1ccc(N2CC[C@@H](NC3CCC3)C2)nn1 [Compound 115, 2-{6-[(3R)-3-(cyclobutylamino)pyrrolidin-1-yl]pyridazin-3-yl}-4-fluoro-5-(1H-pyrazol-4-yl)phenol] | < 100 | < 100 | < 100 | < 100 | < 100 | < 100 | < 100 | < 100
Oc1cc(-c2cn[nH]c2)ccc1-c1ccc(N2CC[C@H](NC3CCC3)C2)nn1 [Compound 116, 2-{6-[(3S)-3-(cyclobutylamino)pyrrolidin-1-yl]pyridazin-3-yl}-5-(1H-pyrazol-4-yl)phenol] | < 100 | < 100 | < 100 | < 100 | 100 to 1000 | 100 to 1000 | 100 to 1000 | < 100
Oc1cc(-c2cn[nH]c2)ccc1-c1ccc(N2CCC(NC3(C(F)F)CC3)C2)nn1 (stereo not shown) [Compound 117, 2-[6-(3-{[1-(difluoromethyl)cyclopropyl]amino}pyrrolidin-1-yl)pyridazin-3-yl]-5-(1H-pyrazol-4-yl)phenol] | 1000 to 10000 | 1000 to 10000 | 1000 to 10000 | 100 to 1000 | > 10000 | > 10000 | > 10000 | > 10000
Cc1ncc(-c2cc(O)c(-c3ccc(N4CC[C@@H](NC5CCC5)C4)nn3)cc2F)s1 [Compound 146, 2-{6-[(3R)-3-(cyclobutylamino)pyrrolidin-1-yl]pyridazin-3-yl}-4-fluoro-5-(2-methyl-1,3-thiazol-5-yl)phenol] | < 100 | < 100 | < 100 | < 100 | < 100 | < 100 | < 100 | < 100
NCCNC1CCN(c2ccc(-c3ccc(-c4cn[nH]c4)cc3O)nn2)C1 (stereo not shown) [Compound 208] | 100 to 1000 | 100 to 1000 | 100 to 1000 | 100 to 1000 | 100 to 1000 | 1000 to 10000 | 1000 to 10000 | 1000 to 10000
COc1cc(-c2ccc(-c3ccc(N4CC[C@@H](NC(C)(C)C)C4)nn3)c(O)c2)cnn1 [Compound 209, 2-{6-[(3R)-3-(tert-butylamino)pyrrolidin-1-yl]pyridazin-3-yl}-5-(6-methoxypyridazin-4-yl)phenol] | < 100 | < 100 | < 100 | < 100 | < 100 | < 100 | < 100 | < 100
COc1cc(-c2ccc(-c3ccc(N4CC[C@H](NC(C)(C)C)C4)nn3)c(O)c2)cnn1 [Compound 210, 2-{6-[(3S)-3-(tert-butylamino)pyrrolidin-1-yl]pyridazin-3-yl}-5-(6-methoxypyridazin-4-yl)phenol] | < 100 | < 100 | < 100 | < 100 | < 100 | < 100 | < 100 | < 100
COc1cc(-c2cc(O)c(-c3ccc(N4CC[C@H](NC(C)(C)C)C4)nn3)cc2F)cnn1 [Compound 211, 2-{6-[(3S)-3-(tert-butylamino)pyrrolidin-1-yl]pyridazin-3-yl}-4-fluoro-5-(6-methoxypyridazin-4-yl)phenol] | 100 to 1000 | 100 to 1000 | 100 to 1000 | < 100 | 1000 to 10000 | 1000 to 10000 | 1000 to 10000 | 100 to 1000

— patent publication US20250333397A1 (REMIX THERAPEUTICS INC., priority 2021, published 2025)
